By IC50 is commonly meant the point on the concentration scale where inhibition reaches its midpoint. Lower therefore signals inhibition by little substance.

≈ marks a conversion by molar mass, not a printed value.

Results on 3 compounds are retold here after ChEMBL document CHEMBL1156377, “New cytotoxic N-methylated beta-carboline alkaloids from the marine ascidian Eudistoma gilboverde” (J Nat Prod, 2001).

What all share (type): functional, cell-based
The subject of assay [1] is COLO 205. Description: Cytotoxicity against human COLO205 cells after 2 days. Particulars: COLO 205, 48 h.
A short description of assay [2]: Cytotoxicity against human LOX cells after 2 days. Particulars: 48 h.
The test system of assay [3] is OVCAR-3. The assay is described as follows: Cytotoxicity against human OVCAR-3 cells after 2 days. Particulars: OVCAR-3, 48 h.
Assay [4] concerns MOLT-4. Description: Cytotoxicity against human MOLT4 cells after 2 days. The note with it: MOLT-4, 48 h.

Consider `CSC[C@H](c1nccc2c1[nH]c1ccc(O)c(Br)c12)N(C)C`, for which the IC50 in assay [1] stood at 0.42 µg/mL (≈ 1.1 µM); in assay [2], 0.41 µg/mL (≈ 1.08 µM); in assay [3], 0.98 µg/mL (≈ 2.58 µM); in assay [4], 0.57 µg/mL (≈ 1.5 µM).
`C[n+]1ccc2c(c1)[nH]c1cc(Br)c(O)cc12.[Cl-]`: the IC50 in assay [1] was determined as 15.1 µg/mL; in assay [2], 15.1 µg/mL; in assay [3], 20 µg/mL; in assay [4] it was 17.5 µg/mL.
As to `C[n+]1ccc2c(c1)[nH]c1ccc(O)c(Br)c12.[Cl-]`, the IC50 in assay [1] stood at 19.1 µg/mL; in assay [2], 15 µg/mL; in assay [3], 20 µg/mL; in assay [4], 16.6 µg/mL.
